According to PubChem BioAssay (NCI):
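These data come from cells grown in 96-well plates and exposed to compound for 48 hours at five concentrations. Definition used: TGI = concentration required for complete inhibition of growth.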

Columns and labels:
Test in all cases: growth of human tumour cells (NCI), 48 h
LOX IMVI melanoma = test system: LOX IMVI melanoma
SF-295 CNS = test system: SF-295 CNS
SNB-19 CNS = test system: SNB-19 CNS
HCC-2998 colon = test system: HCC-2998 colon
OVCAR-8 ovarian = test system: OVCAR-8 ovarian
U251 CNS = test system: U251 CNS
SK-MEL-2 melanoma = test system: SK-MEL-2 melanoma
TK-10 renal = test system: TK-10 renal
OVCAR-4 ovarian = test system: OVCAR-4 ovarian
KM12 colon = test system: KM12 colon
HCT-116 colon = test system: HCT-116 colon
RPMI-8226 leukemia = test system: RPMI-8226 leukemia
DMS 114 small cell lung = test system: DMS 114 small cell lung
SK-OV-3 ovarian = test system: SK-OV-3 ovarian
OVCAR-5 ovarian = test system: OVCAR-5 ovarian
CCRF-CEM leukemia = test system: CCRF-CEM leukemia
A549 NSCLC = test system: A549 NSCLC
SNB-78 CNS = test system: SNB-78 CNS
CAKI-1 renal = test system: CAKI-1 renal
MALME-3M melanoma = test system: MALME-3M melanoma
HOP-18 NSCLC = test system: HOP-18 NSCLC
RXF 393 renal = test system: RXF 393 renal
IGROV1 ovarian = test system: IGROV1 ovarian
M14 melanoma = test system: M14 melanoma
UO-31 renal = test system: UO-31 renal
XF 498 CNS = test system: XF 498 CNS
786-0 renal = test system: 786-0 renal
SK-MEL-5 melanoma = test system: SK-MEL-5 melanoma
MOLT-4 leukemia = test system: MOLT-4 leukemia
OVCAR-3 ovarian = test system: OVCAR-3 ovarian
ACHN renal = test system: ACHN renal
DMS 273 small cell lung = test system: DMS 273 small cell lung
EKVX NSCLC = test system: EKVX NSCLC
NCI-H460 lung = test system: NCI-H460 lung
UACC-62 melanoma = test system: UACC-62 melanoma
SNB-75 CNS = test system: SNB-75 CNS
HCT-15 colon = test system: HCT-15 colon
HOP-62 NSCLC = test system: HOP-62 NSCLC
COLO 205 colon = test system: COLO 205 colon
KM20L2 colon = test system: KM20L2 colon
M19-MEL melanoma = test system: M19-MEL melanoma
SN12C renal = test system: SN12C renal
UACC-257 melanoma = test system: UACC-257 melanoma
SW-620 colon = test system: SW-620 colon
SK-MEL-28 melanoma = test system: SK-MEL-28 melanoma
RXF-631 renal = test system: RXF-631 renal
LXFL 529 NSCLC = test system: LXFL 529 NSCLC
HL-60(TB) leukemia = test system: HL-60(TB) leukemia
DLD-1 colon = test system: DLD-1 colon
HOP-92 NSCLC = test system: HOP-92 NSCLC
HT29 colon = test system: HT29 colon
NCI-H226 lung = test system: NCI-H226 lung
K-562 leukemia = test system: K-562 leukemia
A498 renal = test system: A498 renal
NCI-H522 lung = test system: NCI-H522 lung
NCI-H23 lung = test system: NCI-H23 lung
SF-268 CNS = test system: SF-268 CNS
SF-539 CNS = test system: SF-539 CNS

Cc1ccc(C(=O)NCCN(C)C)c2nc3ccccc3cc12
TGI (LOX IMVI melanoma): 10.4 µM
TGI (SF-295 CNS): 3.8 µM
TGI (SNB-19 CNS): 13.6 µM
TGI (HCC-2998 colon): 13.4 µM
TGI (OVCAR-8 ovarian): 7.99 µM
TGI (U251 CNS): 4.09 µM
TGI (SK-MEL-2 melanoma): > 100 µM
TGI (TK-10 renal): 12.2 µM
TGI (OVCAR-4 ovarian): > 100 µM
TGI (KM12 colon): 6.91 µM
TGI (HCT-116 colon): 10.9 µM
TGI (RPMI-8226 leukemia): > 100 µM
TGI (DMS 114 small cell lung): > 100 µM
TGI (SK-OV-3 ovarian): > 100 µM
TGI (OVCAR-5 ovarian): 8.71 µM
TGI (CCRF-CEM leukemia): > 100 µM
TGI (A549 NSCLC): 4.53 µM
TGI (SNB-78 CNS): > 100 µM
TGI (CAKI-1 renal): 25.6 µM
TGI (MALME-3M melanoma): > 100 µM
TGI (HOP-18 NSCLC): 9.89 µM
TGI (RXF 393 renal): 3.29 µM
TGI (IGROV1 ovarian): > 100 µM
TGI (M14 melanoma): > 100 µM
TGI (UO-31 renal): 11.1 µM
TGI (XF 498 CNS): 3.95 µM
TGI (786-0 renal): > 100 µM
TGI (SK-MEL-5 melanoma): 2.95 µM
TGI (MOLT-4 leukemia): > 100 µM
TGI (OVCAR-3 ovarian): 6.79 µM
TGI (ACHN renal): 10.3 µM
TGI (DMS 273 small cell lung): 2 µM
TGI (EKVX NSCLC): 4.76 µM
TGI (NCI-H460 lung): 14.7 µM
TGI (UACC-62 melanoma): > 100 µM
TGI (SNB-75 CNS): 3.54 µM
TGI (HCT-15 colon): 6.5 µM
TGI (HOP-62 NSCLC): > 100 µM
TGI (COLO 205 colon): > 100 µM
TGI (KM20L2 colon): 6 µM
TGI (M19-MEL melanoma): > 100 µM
TGI (SN12C renal): 10.2 µM
TGI (UACC-257 melanoma): 6.01 µM
TGI (SW-620 colon): 3.52 µM
TGI (SK-MEL-28 melanoma): 5.46 µM
TGI (RXF-631 renal): 12 µM
TGI (LXFL 529 NSCLC): > 100 µM
TGI (HL-60(TB) leukemia): > 100 µM
TGI (DLD-1 colon): > 100 µM
TGI (HOP-92 NSCLC): > 100 µM
TGI (HT29 colon): 11.3 µM
TGI (NCI-H226 lung): 3.85 µM
TGI (K-562 leukemia): > 100 µM

O=C(O)CN(c1ccc(F)cc1)S(=O)(=O)c1ccccc1
TGI (A498 renal): > 100 µM
TGI (LOX IMVI melanoma): > 100 µM
TGI (SF-295 CNS): > 100 µM
TGI (SNB-19 CNS): > 100 µM
TGI (NCI-H522 lung): > 100 µM
TGI (OVCAR-8 ovarian): > 100 µM
TGI (U251 CNS): > 100 µM
TGI (SK-MEL-2 melanoma): > 100 µM
TGI (TK-10 renal): > 100 µM
TGI (OVCAR-4 ovarian): > 100 µM
TGI (KM12 colon): > 100 µM
TGI (RPMI-8226 leukemia): > 100 µM
TGI (SK-OV-3 ovarian): > 100 µM
TGI (OVCAR-5 ovarian): > 100 µM
TGI (CCRF-CEM leukemia): > 100 µM
TGI (A549 NSCLC): > 100 µM
TGI (CAKI-1 renal): > 100 µM
TGI (MALME-3M melanoma): > 100 µM
TGI (HOP-18 NSCLC): > 100 µM
TGI (RXF 393 renal): > 100 µM
TGI (IGROV1 ovarian): > 100 µM
TGI (M14 melanoma): > 100 µM
TGI (UO-31 renal): > 100 µM
TGI (XF 498 CNS): > 100 µM
TGI (786-0 renal): > 100 µM
TGI (SK-MEL-5 melanoma): > 100 µM
TGI (MOLT-4 leukemia): > 100 µM
TGI (OVCAR-3 ovarian): > 100 µM
TGI (NCI-H23 lung): > 100 µM
TGI (ACHN renal): > 100 µM
TGI (DMS 273 small cell lung): > 100 µM
TGI (EKVX NSCLC): > 100 µM
TGI (NCI-H460 lung): > 100 µM
TGI (UACC-62 melanoma): > 100 µM
TGI (SNB-75 CNS): > 100 µM
TGI (HCT-15 colon): > 100 µM
TGI (COLO 205 colon): > 100 µM
TGI (KM20L2 colon): > 100 µM
TGI (M19-MEL melanoma): > 100 µM
TGI (SN12C renal): > 100 µM
TGI (UACC-257 melanoma): > 100 µM
TGI (SW-620 colon): > 100 µM
TGI (SK-MEL-28 melanoma): > 100 µM
TGI (RXF-631 renal): > 100 µM
TGI (LXFL 529 NSCLC): > 100 µM
TGI (SF-268 CNS): > 100 µM
TGI (HL-60(TB) leukemia): > 100 µM
TGI (DLD-1 colon): > 100 µM
TGI (HOP-92 NSCLC): > 100 µM
TGI (HT29 colon): > 100 µM
TGI (NCI-H226 lung): > 100 µM
TGI (K-562 leukemia): > 100 µM
TGI (SF-539 CNS): > 100 µM
